Data taken from US20090208408A1, “USE OF VCAM-1 LIGANDS FOR DETECTING AND/OR TREATING CARDIOVASCULAR DISEASES” (UNIVERSITE JOSEPH FOURIER, priority 2004, published 2009).
Like-named read-outs stand apart in the source and are kept apart here. Each block holds one compound with its values, some of them ahead of it. Where a SMILES comes first, the peptide text is derived from it. [ ]: non-standard residue; d: D form. Tyr(3-I) = N[C@@H](Cc1ccc(O)c(I)c1)C(=O)O

Columns and labels:
[1] = system: atheromatous plaques; test: Aortic binding, ex vivo autoradiography, euthanasia after 180 minutes; assay type: in vivo, rabbit; conditions: 180 minutes after injection
Procedure: (§1) Samples of blood were taken 1, 2, 5, 10, 15, 20, 25 and 30 minutes after injection of the tracers. The animals were euthanased 30 minutes (examples 2, 3 and 4) or 180 minutes (examples 5 and 6) after injection of the labelled VCAM-1 ligands. Samples of the principal organs were taken. These samples, as well as the blood samples taken, were counted for the radioactivity which they contain. The dorsal aorta, the aortic arch and the ventral aorta were also sampled and immediately placed in 10% formalin. A portion of ventral aorta was placed for 24 hours in 3.7% formaldehyde for subsequent inclusion in paraffin and verification by immunohistology of the presence of VCAM-1.
The dorsal and ventral aortas were placed in contact with a high-resolution phosphorus screen (Fujifilm 08SR2025) in darkness for 18 hours. The screen was then scanned (phosphoimager Fujifilm BAS 5000) and the images of the distribution of the labelled VCAM-1 ligands on the aortas of healthy or hyperlipidemic animals were quantified with the aid of the Scion Image Beta software available on the National Institute of Health internet site. […]
The tracers ^123I-B2702.84-75 and ^99mTc-B2702.84-75 were evaluated according to the same methodology as was used for Examples 3 and 4, except that the animals were euthanased 180 minutes (30 minutes previously) after the injection of the tracers. […]

[2] = Blood kinetics up to 180 minutes after injection; assay type: in vivo, rabbit; conditions: 180 minutes after the injection
Procedure: (§2) The tracers ^123I-B2702.84-75 and ^99mTc-B2702.84-75 were evaluated according to the same methodology as was used for Examples 3 and 4, except that the animals were euthanased 180 minutes (30 minutes previously) after the injection of the tracers.
The blood samples for measuring the circulatory tracer activity were taken 1, 2, 5, 10, 20, 25, 30, 60, 120 and 180 minutes after the injection. 180 minutes after the injection, the circulatory activity of ^123I-B2702.84-75 and ^99mTc-B2702.84-75 represents respectively 30% and 15% of the initial activity. It will be recalled that the circulatory activity of ^125I-B2702.84-75 represented approximately 40% of the initial activity 30 minutes after the injection in the experiments described in Example 3.

[3] = Biodistribution 180 minutes after the injection; assay type: in vivo; conditions: rabbit, iv, total radioactivity
Procedure: as §1, §2
The binding values are expressed as a percentage of the injected dose per gram of organ (% ID/g).

[4] = target: T1, VCAM-1 (Homo sapiens, UniProt P19320); conditions: as shown by Ling et al. (2000); cited from earlier work
T1 sequence (P19320 25-739): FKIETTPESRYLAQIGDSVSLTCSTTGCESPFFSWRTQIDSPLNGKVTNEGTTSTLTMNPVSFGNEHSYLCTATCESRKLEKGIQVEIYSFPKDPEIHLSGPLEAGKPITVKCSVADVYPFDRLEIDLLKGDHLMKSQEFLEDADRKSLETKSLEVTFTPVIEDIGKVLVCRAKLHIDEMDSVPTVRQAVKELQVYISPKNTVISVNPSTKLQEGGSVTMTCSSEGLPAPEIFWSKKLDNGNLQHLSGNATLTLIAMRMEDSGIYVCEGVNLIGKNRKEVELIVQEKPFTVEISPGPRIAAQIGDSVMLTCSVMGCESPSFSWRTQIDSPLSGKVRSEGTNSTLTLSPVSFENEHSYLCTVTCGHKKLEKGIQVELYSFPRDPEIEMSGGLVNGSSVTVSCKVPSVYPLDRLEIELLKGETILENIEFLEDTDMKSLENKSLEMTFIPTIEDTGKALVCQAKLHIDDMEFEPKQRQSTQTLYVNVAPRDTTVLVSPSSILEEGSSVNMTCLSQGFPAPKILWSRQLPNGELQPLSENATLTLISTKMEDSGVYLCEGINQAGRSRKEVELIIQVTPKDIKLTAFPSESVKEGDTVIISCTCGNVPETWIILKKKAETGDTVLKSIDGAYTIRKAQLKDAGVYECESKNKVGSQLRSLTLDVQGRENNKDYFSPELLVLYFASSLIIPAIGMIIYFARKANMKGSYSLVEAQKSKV

binding ratio atheromatous plaque / normal aortic zone ([1]; WHHL animals): 4.0 | circulatory activity, of the initial activity [2]: 30% | tissue uptake at 3 h ([3]; aorta, Control rabbits (n = 3), read-out: Biodistribution, Aorta): 0.011 ± 0.004 %ID/g | tissue uptake at 3 h ([3]; aorta, WHHL rabbits (n = 3), read-out: Biodistribution, Aorta): 0.034 ± 0.012 %ID/g | tissue uptake at 3 h ([3]; blood, Control rabbits (n = 3), read-out: Biodistribution, Blood): 0.19 ± 0.038 %ID/g | tissue uptake at 3 h ([3]; blood, WHHL rabbits (n = 3), read-out: Biodistribution, Blood): 0.161 ± 0.048 %ID/g | tissue uptake at 3 h ([3]; fat, Control rabbits (n = 3), read-out: Biodistribution, Fat): 0.011 ± 0.001 %ID/g | tissue uptake at 3 h ([3]; fat, WHHL rabbits (n = 3), read-out: Biodistribution, Fat): 0.015 ± 0.006 %ID/g | tissue uptake at 3 h ([3]; heart, Control rabbits (n = 3), read-out: Biodistribution, Heart): 0.088 ± 0.017 %ID/g | tissue uptake at 3 h ([3]; heart, WHHL rabbits (n = 3), read-out: Biodistribution, Heart): 0.088 ± 0.031 %ID/g | tissue uptake at 3 h ([3]; kidney, Control rabbits (n = 3), read-out: Biodistribution, Kidney): 0.307 ± 0.052 %ID/g | tissue uptake at 3 h ([3]; kidney, WHHL rabbits (n = 3), read-out: Biodistribution, Kidney): 0.49 ± 0.184 %ID/g | tissue uptake at 3 h ([3]; liver, Control rabbits (n = 3), read-out: Biodistribution, Liver): 0.086 ± 0.025 %ID/g | tissue uptake at 3 h ([3]; liver, WHHL rabbits (n = 3), read-out: Biodistribution, Liver): 0.096 ± 0.029 %ID/g | tissue uptake at 3 h ([3]; lung, Control rabbits (n = 3), read-out: Biodistribution, Lung): 0.138 ± 0.028 %ID/g | tissue uptake at 3 h ([3]; lung, WHHL rabbits (n = 3), read-out: Biodistribution, Lung): 0.163 ± 0.044 %ID/g | tissue uptake at 3 h ([3]; muscle, Control rabbits (n = 3), read-out: Biodistribution, Muscle): 0.028 ± 0.003 %ID/g | tissue uptake at 3 h ([3]; muscle, WHHL rabbits (n = 3), read-out: Biodistribution, Muscle): 0.026 ± 0.009 %ID/g | tissue uptake at 3 h ([3]; spleen, Control rabbits (n = 3), read-out: Biodistribution, Spleen): 0.076 ± 0.015 %ID/g | tissue uptake at 3 h ([3]; spleen, WHHL rabbits (n = 3), read-out: Biodistribution, Spleen): 0.089 ± 0.029 %ID/g | tissue uptake at 3 h ([3]; stomach, Control rabbits (n = 3), read-out: Biodistribution, Stomach): 0.095 ± 0.025 %ID/g | tissue uptake at 3 h ([3]; stomach, WHHL rabbits (n = 3), read-out: Biodistribution, Stomach): 0.114 ± 0.04 %ID/g
Compound: CC[C@H](C)[C@H](NC(=O)[C@H](C)NC(=O)[C@H](CC(C)C)NC(=O)[C@H](CCCNC(=N)N)NC(=O)[C@@H](N)Cc1ccc(O)c(I)c1)C(=O)N[C@@H](CCCNC(=N)N)C(=O)N[C@@H](CC(C)C)C(=O)N[C@@H](CC(N)=O)C(=O)N[C@@H](CCC(=O)O)C(=O)N[C@@H](CCCNC(=N)N)C(=O)O [^123I-B2702.84-75] (H-[Tyr(3-I)]RLAIRLNER-OH; N-terminus and C-terminus assumed)
binding on atheromatous plaques of WHHL animals relative to aortas of control animals [1]: 17.0 times

Compound: B2702.84-75/75-84: peptide of sequence YRLAIRLNERRENLRIALRY (SEQ ID no 2), inverse dimer of residues 84-75/75-84 of HLA-B2702 (listed as Homo sapiens)
binding to VCAM-1 [4]: bind specifically to VCAM-1
